Data on two compounds can be found in patent US9757462B2, “Combined pharmaceutical preparation” (Sapporo Medical University, priority 2010, dated 2017).

The subject of one data set is AsPC-1 cells. Description: Impact of excessive mannose on transfection efficiency of fucosylated liposomes (flow cytometry). The class given is cell-based. The settings on record: excessive amount of mannose. The protocol: Mannose is phosphorylated to mannose-6-phosphate by hexokinase, then converted to fructose-6 phosphate that is used in the glycolysis. However, 90% of the mannose taken into the body is excreted unchanged into urine within 30-60 min, and 99% of the remaining mannose is excreted within 8 hr.

Data set [1] in a line: Hematologic/biochemical analyses and adverse effects during the treatment period. The class given is in vivo, mouse. The protocol:
In the preparation of subcutaneous model, AsPC-1 cells (2×10^6 cells) were seeded on the back side of a mouse (4-6 weeks old). Bioluminescence was measured from 0 to 4 days after injection, and the mice were randomly divided into multiple groups before starting the treatment. In vivo optical imaging was performed using Xenogen-IVIS-cooled […] optical system (Xenogen-IVIS). Bound CDD (such as CDDP in fucosylated liposomes) or free CDDP was in a dose of 2 mg/kg for each administration. Injection was performed twice in the first week, then twice in the second and third weeks. All the mice used […], sacrificed on the next day of the final injection prior to the final measurement of bioluminescence.
Samples were collected from mouse orbital venous plexus. In the table, WBC represents white blood cell count, RBC represents red blood cell, count, Hb represents hemoglobin concentration, PLT represents Platelet count, AST represents aspartate aminotransferase concentration, […], Bil represents bilirubin concentration, BS represents blood glucose, Cr represents creatinine concentration.
In pancreatic cancer model mice (AsPC-1), effects of suppression of tumor growth by CDDP, CDDP-encapsulated liposomes (F0), and CDDP-encapsulated liposomes (F50) were compared (FIG. 20). […] Tumor volumes were measured at 4, 8, 11, 15, 18 and 22 days after the transplant.

For data set [2] the following is noted: cited from earlier work.
Another data set has as its system AsPC-1. Description: 14C-fucose binding to cells. The protocol:
(§1) In a 12-well culture plate, 1×10^5 cells were seeded and cultured overnight, and ^14C-fucose (specific activity: 55 mCi/mmol) diluted with BSA-PBS at a concentration of 0-200 nM was added to the cells and cultured at 4° C. for 1 hr. The cells were washed with cold BSA-PBS, lysed by 1% Triton X100/PBS-0.25% trypsin, and the radioactivity of the ^14C-fucose bound to the cell membrane was measured (FIGS. 2 and 3).
In another experiment, in a 12-well culture plate, 2×10^5 cells were seeded and cultured overnight, 10 nmol of ^14C-fucose (specific activity: 55 mCi/mmol) were added to the cells either singly or together with 1 pmol of fucose, and cultured at 4° C. for 1, 3, or 24 hr. The cells under each condition were washed with cold BSA-PBS, lysed by 1% Triton X100/PBS-0.25% trypsin, and the radioactivity of the ^14C-fucose was measured (FIG. 4).

Another data set concerns PANC-1. Briefly: 14C-fucose binding to cells. The settings on record: 14C-fucose 0-200 nM, 4° C., 1 hr. Here is the method:
as §1

Consider `O=C[C@@H](O)[C@@H](O)[C@H](O)[C@H](O)CO` [mannose, D-mannose], for which the “impact on the transfection efficiency of fucosylated liposomes” value with AsPC-1 cells is recorded as “no apparent impact was observed”. Besides, the adverse effect result in data set [1] (1 mg of mannose for a mouse) was “no apparent adverse effect was observed”. Further, in data set [1] (treatment period), the “adverse effects (as shown in Table 5)” value is given as “does not have any adverse effects”. The “mannose taken into the body excreted unchanged into urine” value in data set [2] (within 30-60 min) was 90%. Further, in data set [2] (within 8 hr), the remaining mannose excreted is reported as 99%.

For `C[C@H](O)[C@@H](O)[C@@H](O)[C@H](O)C=O` [fucose, L-fucose], in the data set with AsPC-1 (4° C. for 1, 3, or 24 hr), the “binding of 14C-fucose in competition with non-labeled fucose” value was “inhibited by non-labeled fucose”. Further, the “binding of fucose to cells” value in the data set on AsPC-1 (14C-fucose 0-200 nM, 4° C., 1 hr) is “binds to AsPC-1 and PANC-1 via a receptor-like mechanism”; in the data set with PANC-1 it was “binds to AsPC-1 and PANC-1 via a receptor-like mechanism”. Also, in the data set on AsPC-1 (AsPC-1 compared with PANC-1), the “affinity of fucose binding” value is recorded as “affinity is higher in the fucosylated sugar chain high-producing cell line AsPC-1”.
